# In publication PMC7486940, “Pre-symptomatic Caspase-1 inhibitor delays cognitive decline in a mouse model of Alzheimer disease and aging” (Nature Communications, 2020):
# Assays:
# [1] = tested on: proteolipid protein-synuclein mouse model; set-up: method as in PMID 27482103; settings: proteolipid protein-synuclein mouse model of multiple systems atrophy; cited from earlier work
# in vivo = settings: female, C57BL/6J, mouse, ip, 50 mg/kg; for half-life: Half-life (t1/2) in plasma; for MRT inf: MRTinf in plasma
# Method: Plasma, whole brain and CSF concentrations of VX-765 and its active metabolite, VRT-043198, were determined by LC-MS/MS at Paraza Pharma (Montreal, QC, Canada). Fourteen C57BL/6J female mice received a single IP dose of 50 mg · kg^−1 VX-765 and 2 mice per time point were euthanized at 0.25, 0.5, 1, 3, 6, 8 and 24 h post-injection. Mice were isoflurane anesthetized to collect CSF and perform a cardiac puncture followed by whole body perfusion with PBS. Plasma samples were extracted 1:1 in spiking solution and internal standard solution containing 0.1 μM glyburide in acetonitrile. Brain and CSF samples were extracted 1:1 in spiking solution and internal standard solution containing 0.2 μM labetalol in 50:50 methanol:acetonitrile. Samples were centrifuged at 4000 × g for 10 min at 4 °C, the plasma supernatant diluted 1:1 and the brain and CSF supernatant diluted 1:2 in H2O, and 5 μl was injected into a Quantis LC-MS/MS system for analysis.
# [2] = cited from earlier work
# Casp11 = tested on: Casp11; set-up: method as in Flores et al., Nature Communications 2018; settings: ref Flores et al., Nature Communications 2018; cited from earlier work
# Aβ = Aβ immunostaining density and ELISA (RIPA- and FA-soluble); assay type: in vivo, mouse
# Method: VX-765 (Adooq Bioscience, Irvine, CA, USA) was dissolved 5 mg • ml^−1 in 20% cremophor in dH2O[60] (Sigma-Aldrich, ON, Canada) and administered IPWT and J20 mice received three injections per week of either 50 mg • kg^−1 VX-765 or 20% cremophor vehicle for 4 weeks between 2 and 3 months of age. Mice were longitudinally followed starting 4 weeks after the last injection [4-week washout (WO)], then every other month at 12- and 20-week WO (6 and 8 months of age, respectively). Intermediate 8- and 16-week WO periods were also looked at with a smaller number of mice. After each WO period, animals were randomly chosen, independent of behavioural performance, for sacrifice and assigned to either histological or biochemical analysis (Fig. 2a).
# Mice for immunohistochemistry were isoflurane anesthetized and perfused with ice-cold 4% paraformaldehyde in 0.1 M PBS (Sigma-Aldrich). Brains were post-fixed overnight in 10% neutral-buffered formalin (ThermoFisher Scientific, ON, Canada) and transferred to 70% ethanol for paraffin embedding and sectioning at 4 μm. Tissue slides underwent heat-induced antigen retrieval with citrate or EDTA buffer. Immunostaining was performed using the Dako Autostainer Plus slide processor and EnVision Flex system (Dako, ON, Canada). Sections were peroxidase treated, blocked in Serum-Free Protein Block, and immunostained with the following antibodies: 1:2000 rabbit anti-Iba1 (Wako, VA, USA), 1:500 rat anti-CD68 (clone FA-11, Bio-Rad, Hercules, CA, USA), 1:8000 rabbit anti-GFAP (Dako) and 1:2000 rabbit anti-Aβ1-40 (F25276, laboratory developed). CD68 antibody required an additional rabbit anti-rat IgG/HRP secondary reagent (Dako) incubation. […] Sections were digitally scanned with MIRAX SCAN (Zeiss, ON, Canada) and used for subsequent analyses.
# Iba1-positive microglia were quantified using a modified version of an area-specific counting frame. The number of Iba1-positive cells per mm^3 in the anterior CA1 region and cortex was estimated across four sections, spaced 60 μm apart. Microglial activation level was determined based on morphological measurements[19],[41]. Aβ1-40 and GFAP immunostaining density was measured across four sections using ImageJ software (NIH, Bethesda, MD, USA). Quantification was blinded to treatment and genotype.
# ELISA samples were prepared in RIPA described above. RIPA-insoluble pellets were further extracted in 70% formic acid (FA) in dH2O. FA was evaporated in a speed vacuum, and the resulting pellet was solubilized in 200 mM Tris-HCl, pH 7.5. IL-1β and Aβ levels (which include Aβ38, Aβ40 and Aβ42) were measured using Meso Scale Discovery ELISA kits (Rockville, MD, USA). Standards and samples were prepared according to the manufacturer’s protocols and run in duplicate.
# Casp1 = tested on: Casp1; set-up: method as in PMID 30254377; settings: in vitro Casp1; cited from earlier work
compound,measurement,setting,value
"CCO[C@@H]1OC(=O)C[C@@H]1NC(=O)[C@@H]1CCCN1C(=O)[C@@H](NC(=O)c1ccc(N)c(Cl)c1)C(C)(C)C [VX-765, (S)-1-((S)-2-{[1-(4-amino-3-chloro-phenyl)-methanoyl]-amino}-3,3-dimethyl-butanoyl)-pyrrolidine-2-carboxylic acid ((2R,3S)-2-ethoxy-5-oxo-tetrahydro-furan-3-yl)-amide]",alpha-synuclein toxicity,[1],protect against alpha-synuclein toxicity
same,concentration at 0.25 h,"in vivo; CSF concentration, Mean",330 nM
same,concentration at 0.5 h,"in vivo; CSF concentration, Mean",620 nM
same,concentration at 1 h,"in vivo; CSF concentration, Mean",80 nM
same,concentration at 3 h,"in vivo; CSF concentration, Mean",60 nM
same,concentration at 6 h,"in vivo; CSF concentration, Mean",60 nM
same,concentration at 8 h,"in vivo; CSF concentration, Mean",100 nM
same,concentration at 0.25 h,"in vivo; CSF concentration, Mouse 1",210 nM
same,concentration at 0.5 h,"in vivo; CSF concentration, Mouse 1",70 nM
same,concentration at 1 h,"in vivo; CSF concentration, Mouse 1",60 nM
same,concentration at 3 h,"in vivo; CSF concentration, Mouse 1",70 nM
same,concentration at 6 h,"in vivo; CSF concentration, Mouse 1",50 nM
same,concentration at 8 h,"in vivo; CSF concentration, Mouse 1",70 nM
same,concentration at 0.25 h,"in vivo; CSF concentration, Mouse 2",450 nM
same,concentration at 0.5 h,"in vivo; CSF concentration, Mouse 2",1170 nM
same,concentration at 1 h,"in vivo; CSF concentration, Mouse 2",100 nM
same,concentration at 3 h,"in vivo; CSF concentration, Mouse 2",40 nM
same,concentration at 6 h,"in vivo; CSF concentration, Mouse 2",60 nM
same,concentration at 8 h,"in vivo; CSF concentration, Mouse 2",130 nM
same,Cmax,"in vivo; Cmax in CSF, Mean",690 nM
same,Cmax,"in vivo; Cmax in CSF, Mouse 1",210 nM
same,Cmax,"in vivo; Cmax in CSF, Mouse 2",1170 nM
same,Cmax,"in vivo; Cmax in brain, Mean",160 nM
same,Cmax,"in vivo; Cmax in brain, Mouse 1",240 nM
same,Cmax,"in vivo; Cmax in brain, Mouse 2",90 nM
same,Cmax,"in vivo; Cmax in plasma, Mean",1590 nM
same,Cmax,"in vivo; Cmax in plasma, Mouse 1",1540 nM
same,Cmax,"in vivo; Cmax in plasma, Mouse 2",1630 nM
same,half-life,in vivo; Mean,192 min
same,half-life,in vivo; Mouse 1,193 min
same,half-life,in vivo; Mouse 2,190 min
same,MRT inf,in vivo; Mean,313 min
same,MRT inf,in vivo; Mouse 1,288 min
same,MRT inf,in vivo; Mouse 2,338 min
same,Tmax,"in vivo; Tmax in CSF, Mean",22.8 min
same,Tmax,"in vivo; Tmax in CSF, Mouse 1",15 min
same,Tmax,"in vivo; Tmax in CSF, Mouse 2",30 min
same,Tmax,"in vivo; Tmax in brain, Mean",22.8 min
same,Tmax,"in vivo; Tmax in brain, Mouse 1",15 min
same,Tmax,"in vivo; Tmax in brain, Mouse 2",30 min
same,Tmax,"in vivo; Tmax in plasma, Mean",45 min
same,Tmax,"in vivo; Tmax in plasma, Mouse 1",30 min
same,Tmax,"in vivo; Tmax in plasma, Mouse 2",60 min
same,concentration at 0.25 h,"in vivo; brain concentration, Mean",160 nM
same,concentration at 0.5 h,"in vivo; brain concentration, Mean",70 nM
same,concentration at 0.25 h,"in vivo; brain concentration, Mouse 1",240 nM
same,concentration at 0.5 h,"in vivo; brain concentration, Mouse 1",50 nM
same,concentration at 0.25 h,"in vivo; brain concentration, Mouse 2",70 nM
same,concentration at 0.5 h,"in vivo; brain concentration, Mouse 2",90 nM
same,concentration at 0.25 h,"in vivo; plasma concentration, Mean",290 nM
same,concentration at 0.5 h,"in vivo; plasma concentration, Mean",1010 nM
same,concentration at 1 h,"in vivo; plasma concentration, Mean",1250 nM
same,concentration at 3 h,"in vivo; plasma concentration, Mean",400 nM
same,concentration at 6 h,"in vivo; plasma concentration, Mean",330 nM
same,concentration at 8 h,"in vivo; plasma concentration, Mean",320 nM
same,concentration at 24 h,"in vivo; plasma concentration, Mean",10 nM
same,concentration at 0.25 h,"in vivo; plasma concentration, Mouse 1",310 nM
same,concentration at 0.5 h,"in vivo; plasma concentration, Mouse 1",1540 nM
same,concentration at 1 h,"in vivo; plasma concentration, Mouse 1",870 nM
same,concentration at 3 h,"in vivo; plasma concentration, Mouse 1",450 nM
same,concentration at 6 h,"in vivo; plasma concentration, Mouse 1",430 nM
same,concentration at 8 h,"in vivo; plasma concentration, Mouse 1",200 nM
same,concentration at 24 h,"in vivo; plasma concentration, Mouse 1",8 nM
same,concentration at 0.25 h,"in vivo; plasma concentration, Mouse 2",270 nM
same,concentration at 0.5 h,"in vivo; plasma concentration, Mouse 2",490 nM
same,concentration at 1 h,"in vivo; plasma concentration, Mouse 2",1630 nM
same,concentration at 3 h,"in vivo; plasma concentration, Mouse 2",350 nM
same,concentration at 6 h,"in vivo; plasma concentration, Mouse 2",220 nM
same,concentration at 8 h,"in vivo; plasma concentration, Mouse 2",450 nM
same,concentration at 24 h,"in vivo; plasma concentration, Mouse 2",14 nM
same,in vitro half-life (t1/2),[2],~ 157 h
same,IC50 for Casp11 compared to Casp1,Casp11,over 100 fold
same,"FA-soluble Aβ42 levels, Aβ42/total Aβ ratio, cortical Aβ subtypes","Aβ; J20, 20-week WO","did not affect hippocampal Aβ42 levels and Aβ42/total Aβ ratio, or any Aβ subtype in the cortex"
same,Aβ staining density,"Aβ; J20 hippocampus and cortex, vs vehicle",significantly decreased Aβ staining density only in the cortex at 12-week WO
same,"RIPA-soluble Aβ38, Aβ40, Aβ42 or total Aβ levels","Aβ; J20 hippocampus or cortex, all WO periods, vehicle vs VX-765",no significant differences
same,formic acid (FA)-soluble total Aβ levels,"Aβ; J20 hippocampus or cortex, any WO period",did not differ between vehicle and VX-765 treatment
same,FA-soluble hippocampal Aβ38 and Aβ40 levels,"Aβ; J20 hippocampus, 20-week WO",increased FA-soluble hippocampal Aβ38 and Aβ40 levels at 20-week WO
same,RIPA-soluble Aβ42/total Aβ ratio,"Aβ; J20 hippocampus, 20-week WO",significantly higher in vehicle- compared to VX-765-treated hippocampus in J20 mice at 20-week WO
same,IC50,Casp1,3.68 nM
